The values that follow come from PMC11640836, “Aminomethylmorpholino Nucleosides as Novel Inhibitors of PARP1 and PARP2: Experimental and Molecular Modeling Analyses of Their Selectivity and Mechanism of Action” (International Journal of Molecular Sciences, 2024).

The target in series [1] is T1, PARP1 (Homo sapiens, UniProt P09874).
T1 construct: made in house; host or cells: insect cells
The series can be described thus: PARP1 autopoly(ADP-ribosyl)ation (autoPARylation) enzyme assay with [32P]NAD+. Format: biochemical. To be noted: for IC50: 0.3 mM [32P]NAD+, means ±SDs of three independent experiments, read-out: IC50, PARP1 activity in the autoPARylation reaction. How it is done:
(§1) Human recombinant poly(ADP-ribose) polymerase 1 (PARP1) and murine poly(ADP-ribose) polymerase 2 (PARP2) were expressed in insect cells and purified as previously described. Radioactively labeled [^32P]NAD^+ was synthesized from [α-^32P]ATP, according to the previously developed method. The reaction of autopoly(ADP-ribosyl)ation was performed as follows. For PARP1, the reaction mixture contained 50 mM of Tris-HCl, a pH of 8.0, 10 mM of MgCl2, 150 mM of NaCl, 7 mM of β-mercaptoethanol, 2 A260/mL of activated DNA, 0.3 mM of [^32P]NAD^+, and 1 of the tested compounds. The reaction was initiated by adding PARP1 up to 200 nM, and the reaction mixtures were incubated at 37 °C for 2 min. For PARP2, the reaction mixture contained 50 mM of Tris-HCl, a pH of 8.0, 3 mM of spermine, 150 mM of NaCl, 7 mM of β-mercaptoethanol, 2 A260/mL of activated DNA, 0.6 mM of [^32P]NAD^+, and 1 of the tested compounds. The reaction was initiated by adding PARP2 up to 800 nM, and the reaction mixtures were incubated at 37 °C for 5 min. The tested compounds were added at six fixed concentrations, specified for each of them. The reaction was stopped by dropping 10 µL aliquots onto Whatman 1 filter papers soaked in 5% trichloroacetic acid (TCA). The filters were washed 4 times with 150 mL of 5% TCA and dried in the air after the removal of TCA with 90% ethanol. The introduction of radioactivity into the reaction product was quantified using a Typhoon FLA 9500 imager (GE Healthcare, Chicago, IL, USA). The half-maximal inhibitory concentration (IC50) values were determined using a six-point concentration response curve in three independent experiments.

For series [2], the target named is T2, PARP2 (Mus musculus, UniProt O88554).
T2 construct: made in house; host or cells: insect cells
T2 sequence (O88554 whole entry): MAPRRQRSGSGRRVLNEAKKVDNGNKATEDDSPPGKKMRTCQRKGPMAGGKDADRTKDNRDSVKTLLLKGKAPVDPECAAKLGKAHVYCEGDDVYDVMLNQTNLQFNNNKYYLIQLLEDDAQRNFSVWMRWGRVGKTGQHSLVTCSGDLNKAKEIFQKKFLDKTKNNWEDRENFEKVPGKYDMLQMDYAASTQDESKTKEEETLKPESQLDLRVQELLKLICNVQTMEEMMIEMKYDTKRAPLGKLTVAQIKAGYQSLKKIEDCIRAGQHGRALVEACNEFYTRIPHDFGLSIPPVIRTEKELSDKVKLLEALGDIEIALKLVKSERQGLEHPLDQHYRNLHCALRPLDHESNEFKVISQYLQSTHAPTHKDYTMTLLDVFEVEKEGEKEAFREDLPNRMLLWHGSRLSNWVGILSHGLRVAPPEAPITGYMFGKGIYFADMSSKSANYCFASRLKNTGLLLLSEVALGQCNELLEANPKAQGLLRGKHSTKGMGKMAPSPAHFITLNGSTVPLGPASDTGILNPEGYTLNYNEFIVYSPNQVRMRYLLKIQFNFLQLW
The series can be described thus: PARP2 autopoly(ADP-ribosyl)ation (autoPARylation) enzyme assay with [32P]NAD+. It counts as biochemical, murine. The note with it: for remaining activity at 1000 µM: 5 min, 1 mM compound, autoPARylation reaction, read-out: Residual catalytic activity of PARP2 in the presence of a 1 mM compound; for IC50: 0.6 mM [32P]NAD+, means ±SDs of three independent experiments, read-out: IC50, PARP2 activity in the autoPARylation reaction. Here is the method:
as §1

The target in series [3] is T1, PARP1. As to the kind of experiment: Steady-state kinetic analysis of the PARP1 enzymatic reaction. Format: biochemical. The note with it: for Type of inhibition: Vmax decreased, KM increased. Here is the method:
The four efficient inhibitors of PARP1 (compounds 8, 12, 13, and 14) were further examined by detailed kinetic experiments to determine the type of inhibition and the inhibition constants. […] The kinetics experiments of the PARylation reaction were performed at varied concentrations of the NAD^+ substrate and three–four different fixed concentrations of the inhibitor. The kinetic parameters of the reaction (Vmax and KM) were calculated by fitting the Michaelis–Menten equation to the kinetic data. The type of inhibition was determined by analyzing the dependences of Vmax and KM on the concentration of the inhibitor in linearizing coordinates (Figure S3). All the compounds had decreased Vmax and increased KM values as the inhibitor concentration increased (panels A−E), indicating a mixed type of inhibition, which was further evidenced by the double reciprocal plots of kinetic data (panel F). From these experiments, the inhibition constants reflecting the affinity of inhibitors to the NAD^+ binding pocket of free enzymes were determined (Table 2).
To determine the apparent maximum rate of enzymatic reaction (Vmax), Michaelis constant (KM), and possible inhibition mechanism, steady-state kinetic experiments were performed at […] fixed concentrations of the substrate, in the absence and presence of different fixed concentrations of the inhibitor. The standard reaction mixtures (10 μL) contained 100 μM, 300 μM, 500 μM, 1 mM, or 2 mM NAD^+; a tested PARP1/PARP2 inhibitor specified for each compound (Figure S3); the recombinant human enzyme PARP1 (200 nM) or murine PARP2 (800 nM); and reaction buffer components (specified in the previous subsection). The reaction was performed as described in the previous subsection. The raw data (kinetic curves) were obtained in three independent experiments and statistically processed with OriginPro 8.6.0 software. […]
F) Graphical representation in double reciprocal plots. The inhibitor concentrations (µM) are indicated right to each panel.
Figure S3. Graphical representation of inhibition type determination for PARP1 and PARP2 with selected compounds.
The Ki and Ki(2) values presented in Table 2 in the main text and Table S1 were calculated using the equations:
Ki = Ci⁄ Ki (2) = CiV Vmax ∗ൗ−1
ቂ(Vmax Km )൘ቃ(Vmax ∗ Km ∗)⁄ −1 where Vmax (Vmax*) – maximal reaction velocity in th e absence (presence) of inhibitor; Km (Km*) – Michaelis constant in the absence (presence) of inhibitor; Ci – the inhibitor concentration.
(also on this page, place not known: Ci )⁄ (Vmax ∗ )⁄൘ቃ − Ki(2) Ci V ∗ൗ− 1 the Vmax KM 3000 0 1 0 250 [ 32 P]ADP-ribose, counts x 10 -3 NAD + ,)
(1 picture or pasted object on this page, not shown here)

In series [4] the test system is HeLa cell line (cervical cancer). The series can be described thus: Cell culture cytotoxicity assay (EZ4U/MTT), compounds alone and combined with hydrogen peroxide. To be noted: for Effect (H2O2 + PARP inhibitor combo): Hela.
Series [5] deals with PARP2. The note with it: cited from earlier work.
Series [6] concerns the target T3, PARP2 (supplemented with HPF1 or not) (Mus musculus, UniProt O88554).
T3 construct: made in house; host or cells: insect cells (PARP2)
The series can be described thus: PARP2 inhibition in the absence and presence of HPF1 (automodification, SDS-PAGE). Format: biochemical, murine. The note with it: 500 nM PARP2, 1 µM HPF1. How it is done: PARP1/PARP2 autopoly(ADP-ribosyl)ation was performed in a standard 20 μL reaction mixture containing 50 mM of Tris-HCl, a pH of 8.0, 100 mM of NaCl, 10 mM of MgCl2, 1 mM of DTT, 10 µM of [^32P]NAD^+, 1 µM of gap-DNA (a 32-mer duplex with a medially located 1-nucleotide gap), 500 nM of PARP1/PARP2 (supplemented with 1 µM of HPF1 or not), and an inhibitor of interest at concentrations specified in Figure 4 and Figure S7. The reaction was initiated by adding a mixture of [^32P]NAD^+ and DNA to a protein-inhibitor mixture pre-assembled on ice. After incubating the mixtures at 37 °C for the indicated time periods, the reactions were terminated by the addition of an SDS-PAGE sample buffer and heating for 2 min at 90 °C. The reaction products were analyzed using 10% SDS-PAGE with the subsequent phosphor imaging of a Coomassie brilliant blue stained gel. Protein bands labeled with [^32P]ADP-ribose were quantified using Quantity One 4.6.7 Basic software. The residual activity (%) was determined as the level of PARP automodification in the presence of an inhibitor normalized to the respective level in the control sample containing no inhibitor.

In series [7] the test system is PARP1. The note with it: cited from earlier work.
The mark [8] stands for this setting: mixed-type inhibition, read-out: Ki (affinity for the free enzyme).
[9] abbreviates: read-out: Ki(2) (affinity for the enzyme complex with NAD+ substrate).

Read-outs that look alike come from different tables or passages of the source. Where only a bound is given, the exact number is not on record here.

T1 sequence (P09874 whole entry): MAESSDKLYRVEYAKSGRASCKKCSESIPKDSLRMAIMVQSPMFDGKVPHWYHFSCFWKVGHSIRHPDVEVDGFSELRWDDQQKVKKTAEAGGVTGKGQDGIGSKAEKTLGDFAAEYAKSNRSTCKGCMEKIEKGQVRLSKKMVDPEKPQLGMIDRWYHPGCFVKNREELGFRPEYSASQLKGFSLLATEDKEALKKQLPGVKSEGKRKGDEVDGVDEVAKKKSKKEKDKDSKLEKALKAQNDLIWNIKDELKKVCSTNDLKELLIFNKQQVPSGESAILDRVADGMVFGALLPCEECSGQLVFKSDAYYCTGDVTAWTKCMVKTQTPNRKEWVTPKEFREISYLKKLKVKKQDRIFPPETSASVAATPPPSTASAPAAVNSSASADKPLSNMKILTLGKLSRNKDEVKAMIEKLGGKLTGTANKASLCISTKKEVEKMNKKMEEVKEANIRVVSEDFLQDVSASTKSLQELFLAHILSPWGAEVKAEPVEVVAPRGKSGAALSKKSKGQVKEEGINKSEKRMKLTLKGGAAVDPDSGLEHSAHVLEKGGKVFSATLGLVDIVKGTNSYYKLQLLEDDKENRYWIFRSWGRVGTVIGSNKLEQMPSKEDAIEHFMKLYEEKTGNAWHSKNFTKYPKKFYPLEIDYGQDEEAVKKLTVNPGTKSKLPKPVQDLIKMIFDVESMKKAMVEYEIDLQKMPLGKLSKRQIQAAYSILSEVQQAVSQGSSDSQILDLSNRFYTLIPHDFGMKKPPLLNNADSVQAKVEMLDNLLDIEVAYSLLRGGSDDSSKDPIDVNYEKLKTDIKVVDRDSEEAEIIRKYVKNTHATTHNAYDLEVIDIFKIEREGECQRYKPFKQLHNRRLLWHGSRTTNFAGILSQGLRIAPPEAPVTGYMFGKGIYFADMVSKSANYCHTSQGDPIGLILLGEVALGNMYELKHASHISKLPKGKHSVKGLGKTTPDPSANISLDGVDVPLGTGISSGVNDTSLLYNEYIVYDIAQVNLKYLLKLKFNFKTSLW
T3 sequence (O88554 whole entry): as the sequence (O88554 whole entry) above

With `NC[C@@H]1CN(CC(=O)O)C[C@H](n2cnc3c(=O)[nH]c(N)nc32)O1` [Compound 3], at PARP1 [1] (autoPARylation reaction), the “Residual catalytic activity of PARP1 in the presence of a 1 mM compound” value (“Residual catalytic activity of PARP1” below) was over 30%. In addition, at PARP2 [2], the remaining activity at 1000 µM is over 30%.
Take `NC[C@@H]1CNC[C@H](n2cc(Cl)c(=O)[nH]c2=O)O1` [Compound 12, aminomethylmorpholino 5-Cl-uracil nucleoside]: the Type of inhibition entry at PARP1 [3] is recorded as “mixed-type inhibition”. Besides, the Ki on PARP1 [3] (setting [8]) turned out to be 79 ± 6 µM; on PARP1 [3] (setting [9]), 300 ± 60 µM. Further, the IC50 on PARP1 [1] was determined as 45 ± 5 µM. The “Selectivity for PARP1 over PARP2 (IC50 comparison)” value on PARP1 [1] (autoPARylation reaction) is given as “highly selective PARP1 inhibitor”. For the same compound, the remaining activity at 1000 µM at PARP2 [2] is over 30%.
Consider `NC[C@@H]1CNC[C@H](n2cnc3c(=O)[nH]c(N)nc32)O1` [Compound 9], for which the “Residual catalytic activity of PARP1” value on PARP1 [1] (autoPARylation reaction) was over 30%. Further, the remaining activity at 1000 µM at PARP2 [2] was over 30%.
Consider `O=C(c1cc(Cc2n[nH]c(=O)c3ccccc23)ccc1F)N1CCN(C(=O)C2CC2)CC1` [olaparib, reference compound], for which the “Effect (H2O2 + PARP inhibitor combo)” value in series [4] (H2O2 30 μM + inhibitor 30 μM) amounted to 0.32; in series [4] (H2O2 30 μM + inhibitor 50 μM), 0.42; in series [4] (H2O2 50 μM + inhibitor 30 μM), 0.51; in series [4] (H2O2 50 μM + inhibitor 50 μM) it was […]; in series [4] (H2O2 90 μM + inhibitor 30 μM), 0.6; in series [4] (H2O2 90 μM + inhibitor 50 μM), 0.7. The “Effect (H2O2 + PARP inhibitor combo)” value in series [4] (H2O2 150 μM + inhibitor 30 μM) was 0.85; in series [4] (H2O2 150 μM + inhibitor 50 μM), 0.9; in series [4] (H2O2 250 μM + inhibitor 30 μM) it was 0.96; in series [4] (H2O2 250 μM + inhibitor 50 μM), 0.98. The “Effect on the cytotoxicity of hydrogen peroxide” value in series [4] (Hela cells, MTT test, H2O2 30 to 250 μM) is “enhanced the cytotoxic effects of hydrogen peroxide”. For the same compound, the 50% inhibitory concentration (IC50) in the series with PARP2 [5] was […].
Regarding `NC[C@@H]1CNC[C@H](n2cnc3c(N)ncnc32)O1` [Compound 7], the “Residual catalytic activity of PARP1” value at PARP1 [1] (autoPARylation reaction) is over 30%. Further, the remaining activity at 1000 µM at PARP2 [2] was over 30%.
For `NC[C@@H]1CN(CC(=O)O)C[C@H](n2cnc3c(N)ncnc32)O1` [Compound 1], in that order: over 30% and over 30%.
For `NC[C@@H]1CN(CC(=O)O)C[C@H](n2ccc(N)nc2=O)O1` [Compound 4], the “Residual catalytic activity of PARP1” value at PARP1 [1] (autoPARylation reaction) was over 30%. Further, the remaining activity at 1000 µM at PARP2 [2] is over 30%.
Regarding `NC[C@@H]1CNC[C@H](n2ccc(=O)[nH]c2=O)O1` [Compound 11], the IC50 at PARP1 [1] amounted to 420 ± 66 µM. At PARP2 [2], the remaining activity at 1000 µM was over 30%.
As for `NC[C@@H]1CNC[C@H](n2ccc(N)nc2=O)O1` [Compound 10], the “Effect (H2O2 + PARP inhibitor combo)” value amounted to 0.29 in series [4] (H2O2 30 μM + inhibitor 100 μM); 0.23 in series [4] (H2O2 30 μM + inhibitor 800 μM); 0.32 in series [4] (H2O2 50 μM + inhibitor 100 μM); 0.26 in series [4] (H2O2 50 μM + inhibitor 800 μM); 0.45 in series [4] (H2O2 90 μM + inhibitor 100 μM); 0.51 in series [4] (H2O2 90 μM + inhibitor 800 μM). The “Effect (H2O2 + PARP inhibitor combo)” value in series [4] (H2O2 150 μM + inhibitor 100 μM) turned out to be 0.66; in series [4] (H2O2 150 μM + inhibitor 800 μM), 0.64; in series [4] (H2O2 250 μM + inhibitor 100 μM), 0.78; in series [4] (H2O2 250 μM + inhibitor 800 μM) it was 0.87. In addition, the “Residual catalytic activity of PARP1” value at PARP1 [1] (autoPARylation reaction) is given as over 30%. Besides, the remaining activity at 1000 µM on PARP2 [2] is over 30%.
For `NC[C@@H]1CN(CC(=O)O)C[C@H](n2ccc(=O)[nH]c2=O)O1` [Compound 5], at PARP1 [1] (autoPARylation reaction), the “Residual catalytic activity of PARP1” value is given as over 30%. On PARP2 [2], the remaining activity at 1000 µM is over 30%.
As to `NC[C@@H]1CNC[C@H](n2cc(Br)c(=O)[nH]c2=O)O1` [Compound 13], the Type of inhibition entry on PARP1 [3] is given as “mixed-type inhibition”. Also, the values for the Ki on PARP1 [3] (setting [8]) and on PARP1 [3] (setting [9]) were 25 ± 4 µM and 130 ± 30 µM, respectively. In addition, the “Impact of HPF1 on the inhibition potency against PARP2” value in series [6] was “no impact of HPF1”. Further, the values for the 50% inhibitory concentration (IC50) on PARP1 [1] and on PARP2 [2] were 30 ± 3 µM and 250 ± 37 µM, respectively.
With `O=c1[nH]c(=O)n([C@@H]2O[C@H](CO)[C@@H](O)[C@H]2O)cc1I` [Compound 5-I-Urd], the IC50 with PARP1 [7] was 49 µM; in the series on PARP2 [5], 27 µM.
In the case of `NC[C@@H]1CN(CC(=O)O)C[C@H](n2cc(I)c(=O)[nH]c2=O)O1` [Compound 6, 2′-aminomethylmorpholino glycine 5-I-uracyl nucleoside], the IC50 at PARP1 [1] is 70 ± 12 µM; on PARP2 [2] it was 142 ± 6 µM.
For `Cc1cn([C@H]2CN(CC(=O)O)C[C@@H](CN)O2)c(=O)[nH]c1=O` [Compound 2], in that order: 60 ± 14 µM and 100 ± 12 µM.
Consider `Cc1cn([C@@H]2O[C@H](CO)[C@@H](O)[C@H]2O)c(=O)[nH]c1=O` [rThd], for which the IC50 was 277 µM with PARP1 [7] and 374 µM with PARP2 [5].

What is called Ki is the dissociation constant of the complex between target and ligand, obtained from inhibition or displacement. By IC50 is commonly meant the concentration that gives 50% inhibition.
